Where “and” joins values, the source holds several entries; their conditions need not be identical. Equal values may be shown once.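 How tested: cells in 96-well plates exposed to compound for 48 hours at five concentrations. GI50: concentration for 50% inhibition of growth. TGI: concentration producing complete growth inhibition.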
What was measured:
Assay in all cases: NCI-60 cell line screen, 48 h
HOP-62 NSCLC = test system: HOP-62 NSCLC
786-0 renal = test system: 786-0 renal
OVCAR-3 ovarian = test system: OVCAR-3 ovarian
SNB-19 CNS = test system: SNB-19 CNS
COLO 205 colon = test system: COLO 205 colon
NCI-H23 lung = test system: NCI-H23 lung
OVCAR-8 ovarian = test system: OVCAR-8 ovarian
SN12C renal = test system: SN12C renal
NCI-H522 lung = test system: NCI-H522 lung
MCF7 breast = test system: MCF7 breast

SMILES | GI50 (HOP-62 NSCLC) | TGI (HOP-62 NSCLC) | GI50 (786-0 renal) [µM] | TGI (786-0 renal) [µM] | GI50 (OVCAR-3 ovarian) [µM] | TGI (OVCAR-3 ovarian) | GI50 (SNB-19 CNS) | TGI (SNB-19 CNS) | GI50 (COLO 205 colon) [µM] | TGI (COLO 205 colon) | GI50 (NCI-H23 lung) | TGI (NCI-H23 lung) | GI50 (OVCAR-8 ovarian) | TGI (OVCAR-8 ovarian) | GI50 (SN12C renal) [µM] | TGI (SN12C renal) | GI50 (NCI-H522 lung) | TGI (NCI-H522 lung) | GI50 (MCF7 breast) | TGI (MCF7 breast)
CCCCCCCCCCCCSC1=C(Cl)C(=O)C(OC)=C(OC)C1=O | 6.07 µM | 18.5 µM | 4.18 | 19.2 | 1.39 | 18.3 µM | 3.64 µM | 15 µM | 4.32 | 18.4 µM | 3.36 µM | 20.2 µM | 2.35 µM | > 100 µM | 1.75 | 16.5 µM | 0.379 µM | 3.75 µM | 0.417 µM | 7.12 µM
CCCCCCCCC/C(=N\NC(=O)c1ccncc1)c1ccc(O)c(O)c1O | 0.09 µM | 16 µM | 0.216 | 5.75 | 0.0616 | > 35.7 µM | 0.272 µM | > 100 µM | 0.617 | 17.4 µM | 0.393 µM | 29.1 µM | 0.179 µM | > 100 µM | 0.207 | 35 µM | 0.418 µM | 23.1 µM | 0.309 µM | 18.3 µM
CCN1C(=O)N(CC)C2C1NN=c1s/c(=C\c3ccco3)c(=O)n12 (stereo not given) | 0.722 µM | > 100 µM | 0.571 | > 100 | 0.334 |  | 0.741 µM | > 100 µM | 0.403 | > 23.6 µM | 1.1 µM | > 100 µM | 1.43 µM | > 100 µM | 0.941 | > 100 µM | 0.33 µM |  | 0.361 µM | > 100 µM
O=C1NC2C(=CC(O)C(O)C2O)c2cc3c(cc21)OCO3 (stereo not given) | 0.277 µM and 0.191 µM | 1.82 µM and 1.84 µM | 0.544 | 4.93 | 0.441 | 2.36 µM and 1.42 µM | 0.296 µM and 0.111 µM | 0.832 µM and 2.12 µM | 0.074 | 0.595 µM and 0.249 µM and 0.579 µM | 0.325 µM and 0.205 µM | 2 µM and 2.84 µM | 0.344 µM and 0.171 µM | 2.25 µM and 1.72 µM | 0.156 | 2.59 µM and 2.29 µM | 0.352 µM and 0.105 µM | 0.574 µM and 1.41 µM | 0.0495 µM | 0.854 µM and 4.46 µM
COc1cc(-c2oc3c(OC)cc(OC)c(O)c3c(=O)c2OC)cc(OC)c1OC |  | 6.62 µM |  | > 100 |  | > 100 µM |  | > 100 µM |  | > 100 µM |  | > 100 µM |  | 32.7 µM |  | > 100 µM |  | 40.2 µM |  | > 100 µM
C#CCN(Cc1nc2cc(C(F)(F)F)ccc2nc1-c1ccccc1)c1ccc(C)cc1 | 4.41 µM | 33.9 µM | 15.5 | > 42.8 | 3.7 | 16.8 µM | 6.2 µM | > 36.1 µM | 2.79 |  | 8.48 µM | > 34.7 µM | 10.9 µM | > 73.9 µM | > 28.2 | > 59.9 µM | 3.3 µM | 26 µM | 2.38 µM | > 59.1 µM
COC(=O)C1=COC(C)C2CN3CCc4c([nH]c5cc(OC)c(OC)cc45)C3CC12 (stereo not given) |  | > 100 µM |  | > 100 |  | > 100 µM |  | > 100 µM |  | > 100 µM and 86.6 µM |  | > 100 µM | > 100 µM and 45.1 µM | > 100 µM |  | > 100 µM | > 100 µM and 22 µM | > 100 µM and 57.2 µM | > 100 µM and 36.4 µM | > 100 µM
CONC(C)=O |  | > 100 µM |  | > 100 |  | > 100 µM |  | > 100 µM |  | > 100 µM |  | > 100 µM |  | > 100 µM |  | > 100 µM |  | > 100 µM |  | > 100 µM

Reference: PubChem BioAssay (NCI)
